Converted amounts (≈) assume the structure as drawn. Where two headings read alike, the source gives them in different places.
How the values were obtained:
[1] = test system: CCD 841 CoN (colon epithelial cells); assay: Sulforhodamine B (SRB) cell viability assay; format: cell-based; conditions: Homo sapiens, 72 h, non-tumorigenic cells
Experimental: (§1) The cytotoxicity of C. chilense EO was evaluated in two non-tumorigenic human cell lines: CCD 841 CoN (colon epithelial cells) and HEK-293T (human embryonic kidney). All tested cell lines were obtained from the AmericanType Culture Collection (Rockville, MD, United States). The different cell lines were maintained as monolayers in a culture medium (HAM-F10 + DMEM, 1:1) supplemented with 10% fetal bovine serum, as well as antibiotics (0.01 mg/mL streptomycin and 0.005 mg/mL penicillin). The cells were incubated at 37 °C in a humidified 5% CO2 atmosphere.
(§2) To determine the effect on cell viability of C. chilense EO, the sulforhodamine B (SRB)assay was used to measure the number of viable cells after each treatment ([Silva et al., 2022]). Cells were seeded in 96-well plates at 3 × 10^3 cells/well in 100 μL of culture medium and treated in triplicate with increasing concentrations of essential oil (0.625–100 μg/mL) for 72 h at 37°C and 5% CO2. The cells which received only the medium containing 0.1% DMSO served as the control group. […] The dye is solubilized with 150 μL/well of 10 mM Tris Base, and the absorbance is then measured at a wavelength of 540 nm in a microplate reader. […]

[2] = test system: HEK-293T (human embryonic kidney); assay: Sulforhodamine B (SRB) cell viability assay; format: cell-based; conditions: 72 h, non-tumorigenic cells
Experimental: as §1, §2

C. albicans (10,935) = assay: Broth microdilution antifungal susceptibility (CLSI M27-A3), MIC and MFC; format: cell-based, Candida albicans; conditions: for MFC / MIC: Candida albicans, 48 h
Experimental: (§3) The antifungal activity of the EO and its main components was evaluated against reference strains and clinical isolates of Candida. The reference strains C. albicans (ATCC 7978) and C. parapsilosis (ATCC 22019) were used, as well as the clinical isolates C. albicans 10,935, C. dubliniensis 3240, Candida glabrata 10,912, C. guilliermondii 12,204, C. lusitaniae 2305, and Candida tropicalis 9841. The clinical isolates were obtained from patients of the Base Hospital of […], Los Ríos Region, Chile. After identification, the microorganisms were included in the pathogenic fungal collection (Bioassay Laboratory of University of […]íso). They are maintained in Sabouraud Dextrose Broth (SDB) with glycerol at -80°C according to established protocols ([Madrid et al., 2012]). […] Briefly, cultures of all yeast were placed on Sabouraud Dextrose Agar (SDA) and incubated for 24-72 h at temperature 37°C. Colonies of this culture were suspended in sterile 0.85% NaCl and the inoculum was standardized according to the scale of 0.5 McFarland (1-5 × 10^6 CFU/mL). The antifungal assay was conducted in 96-well plates. […] A volume of 100 μL of inoculum suspension was added to each well with the exception of the sterility control where sterile water was added to the well instead. […] Following a 24-48 h incubation at 37°C, the absorbance of the plates was measured at 540 nm using a VERSA Max microplate reader (Molecular Devices, Sunnyvale, CA, United States) for spectrophotometric analysis. […] The lowest concentration with no visible growth was defined as MFC indicating 99.5% death of the original inoculum. All experiments were performed in triplicate and repeated three times for reproducibility.

C. albicans (ATCC 7978) = assay: as above; format: cell-based, Candida albicans; conditions: for MFC / MIC: Candida albicans
Experimental: as §3

[3] = test system: C. parapsilosis (ATCC 22019); assay: as above; format: cell-based, Candida parapsilosis; conditions: Lodderomyces parapsilosis
Experimental: as §3

[4] = test system: C. guilliermondii (12,204); assay: as above; format: cell-based; conditions: Meyerozyma guilliermondii, 48 h
Experimental: as §3

C. lusitaniae (2305) = assay: as above; format: cell-based; conditions: for MFC / MIC: Clavispora lusitaniae, 48 h; for MFC/MIC ratio: C. lusitaniae
Experimental: as §3

C. tropicalis (9841) = assay: as above; format: cell-based; conditions: Candida tropicalis, 48 h
Experimental: as §3

C. glabrata (10,912) = assay: as above; format: cell-based, Candida glabrata; conditions: for MFC / MIC: Nakaseomyces glabratus, 48 h
Experimental: as §3

Candida spp. = assay: Broth microdilution antifungal susceptibility, summary over all tested strains; format: cell-based; conditions: for MIC: Candida, summary over all tested strains
Experimental: as §3

[5] = C. albicans (10,935), clinical isolate, read-out: MFC
[6] = C. albicans (10,935), clinical isolate, read-out: MIC
[7] = ATCC7978, C. albicans (ATCC 7978), 48 h, read-out: MFC
[8] = ATCC7978, C. albicans (ATCC 7978), 48 h, read-out: MIC
[9] = ATCC22019, C. parasilopsis (ATCC 22019), 48 h, read-out: MFC
[10] = ATCC22019, C. parasilopsis (ATCC 22019), 48 h, read-out: MIC
[11] = C. guilliermondii (12,204), clinical isolate, read-out: MFC
[12] = C. guilliermondii (12,204), clinical isolate, read-out: MIC
[13] = C. lusitaniae (2305), clinical isolate, read-out: MFC
[14] = C. lusitaniae (2305), clinical isolate, read-out: MIC
[15] = C. tropicalis (9841), clinical isolate, read-out: MFC
[16] = C. tropicalis (9841), clinical isolate, read-out: MIC
[17] = C. glabrata (10,912), clinical isolate, read-out: MFC
[18] = C. glabrata (10,912), clinical isolate, read-out: MIC
[19] = as stated in the text for several or all strains
[20] = remaining species/strains, those not named with ratio 1

| SMILES | MFC (C. albicans (10,935); [5]) [µg/mL] | MIC (C. albicans (10,935); [6]) [µg/mL] | MFC (C. albicans (ATCC 7978); [7]) [µg/mL] | MIC (C. albicans (ATCC 7978); [8]) [µg/mL] | MFC [3, 9] [µg/mL] | MIC [3, 10] [µg/mL] | MFC [4, 11] [µg/mL] | MIC [4, 12] [µg/mL] | MFC (C. lusitaniae (2305); [13]) [µg/mL] | MIC (C. lusitaniae (2305); [14]) [µg/mL] | MFC (C. tropicalis (9841); [15]) [µg/mL] | MIC (C. tropicalis (9841); [16]) [µg/mL] | MFC (C. glabrata (10,912); [17]) [µg/mL] | MIC (C. glabrata (10,912); [18]) [µg/mL] | further results |
| --- | --- | --- | --- | --- | --- | --- | --- | --- | --- | --- | --- | --- | --- | --- | --- |
| O=c1[nH]cc(F)c(=O)[nH]1 [5-FU, 5-fluorouracil] |  |  |  |  |  |  |  |  |  |  |  |  |  |  | IC50 [1]: 56.4 ± 0.31 µg/mL (≈ 434 µM); IC50 [2]: 18.3 ± 0.56 µg/mL (≈ 141 µM) |
| C[C@@H]1[C@H](O)[C@@H](C)/C=C/C=C/C=C/C=C/C=C/C=C/C=C/[C@H](O[C@@H]2O[C@H](C)[C@@H](O)[C@H](N)[C@@H]2O)C[C@@H]2O[C@](O)(C[C@@H](O)C[C@@H](O)[C@H](O)CC[C@@H](O)C[C@@H](O)CC(=O)O[C@H]1C)C[C@H](O)[C@H]2C(=O)O [C1, amphotericin B, reference compound] | 256 (≈ 277 µM) | 128 (≈ 139 µM) | 2 (≈ 2.16 µM) | 1 (≈ 1.08 µM) | 1 (≈ 1.08 µM) | 0.5 (≈ 0.541 µM) | 128 (≈ 139 µM) | 64 (≈ 69.3 µM) | 128 (≈ 139 µM) | 64 (≈ 69.3 µM) | 64 (≈ 69.3 µM) | 32 (≈ 34.6 µM) | 256 (≈ 277 µM) | 128 (≈ 139 µM) |  |
| OC(Cn1cncn1)(Cn1cncn1)c1ccc(F)cc1F [C2, fluconazole, reference compound] | 4 (≈ 13.1 µM) | 2 (≈ 6.53 µM) | 1 (≈ 3.27 µM) | 0.5 (≈ 1.63 µM) | 2 (≈ 6.53 µM) | 1 (≈ 3.27 µM) | 1 (≈ 3.27 µM) | 0.5 (≈ 1.63 µM) | 4 (≈ 13.1 µM) | 2 (≈ 6.53 µM) | 1 (≈ 3.27 µM) | 0.5 (≈ 1.63 µM) | 64 (≈ 209 µM) | 32 (≈ 104 µM) | MFC/MIC ratio (Candida spp.; [19]): 2 |
| CCC(C)n1ncn(-c2ccc(N3CCN(c4ccc(OCC5COC(Cn6cncn6)(c6ccc(Cl)cc6Cl)O5)cc4)CC3)cc2)c1=O (stereo not shown) [C3, itraconazole, reference compound] | 8 (≈ 11.3 µM) | 4 (≈ 5.67 µM) | 1 (≈ 1.42 µM) | 0.5 (≈ 0.709 µM) | 1 (≈ 1.42 µM) | 1 (≈ 1.42 µM) | 4 (≈ 5.67 µM) | 2 (≈ 2.83 µM) | 8 (≈ 11.3 µM) | 4 (≈ 5.67 µM) | 1 (≈ 1.42 µM) | 0.5 (≈ 0.709 µM) | 16 (≈ 22.7 µM) | 8 (≈ 11.3 µM) |  |
| CC(C)=C1CC[C@@H](C)CC1=O [Compound 1, pulegone] |  |  |  |  |  |  |  |  |  |  |  |  |  |  | MFC (C. albicans (10,935)): 128 µg/mL (≈ 841 µM); MIC (C. albicans (10,935)): 64 µg/mL (≈ 420 µM); MFC (C. albicans (ATCC 7978); ATCC7978, 48 h): 128 µg/mL (≈ 841 µM); MIC (C. albicans (ATCC 7978); ATCC7978, 48 h): 128 µg/mL (≈ 841 µM); MFC ([3]; ATCC22019, 48 h): 256 µg/mL (≈ 1680 µM); MIC ([3]; ATCC22019, 48 h): 128 µg/mL (≈ 841 µM); MFC [4]: 128 µg/mL (≈ 841 µM); MIC [4]: 64 µg/mL (≈ 420 µM); MFC/MIC ratio (C. lusitaniae (2305)): 1; MFC (C. lusitaniae (2305)): 64 µg/mL (≈ 420 µM); MIC (C. lusitaniae (2305)): 64 µg/mL (≈ 420 µM); MFC (C. tropicalis (9841)): 256 µg/mL (≈ 1680 µM); MIC (C. tropicalis (9841)): 128 µg/mL (≈ 841 µM); MFC (C. glabrata (10,912)): 128 µg/mL (≈ 841 µM); MIC (C. glabrata (10,912)): 128 µg/mL (≈ 841 µM); MFC/MIC ratio (Candida spp.; [20]): 2 |
| Cc1ccc(C(C)C)c(O)c1 [Compound 2, thymol] | 32 (≈ 213 µM) | 32 (≈ 213 µM) | 64 (≈ 426 µM) | 64 (≈ 426 µM) | 64 (≈ 426 µM) | 32 (≈ 213 µM) | 64 (≈ 426 µM) | 32 (≈ 213 µM) | 64 (≈ 426 µM) | 32 (≈ 213 µM) | 128 (≈ 852 µM) | 64 (≈ 426 µM) | 64 (≈ 426 µM) | 64 (≈ 426 µM) | MFC/MIC ratio (C. albicans (10,935); C. albicans (10,935)): 1; MFC/MIC ratio (C. albicans (ATCC 7978); C. albicans (ATCC 7978)): 1; MFC/MIC ratio (C. lusitaniae (2305)): 1; MFC/MIC ratio (C. glabrata (10,912); C. glabrata): 1; MIC (Candida spp.): 32 to 64 µg/mL (≈ 213 to 426 µM); MFC/MIC ratio (Candida spp.; [20]): 2 |
| CC1CCC(C(C)C)C(=O)C1 (stereo not shown) [Compound 3, isomenthone] | 128 (≈ 830 µM) | 128 (≈ 830 µM) | 128 (≈ 830 µM) | 128 (≈ 830 µM) | 128 (≈ 830 µM) | 128 (≈ 830 µM) | 128 (≈ 830 µM) | 128 (≈ 830 µM) | 64 (≈ 415 µM) | 64 (≈ 415 µM) | 128 (≈ 830 µM) | 64 (≈ 415 µM) | 128 (≈ 830 µM) | 128 (≈ 830 µM) | MIC (Candida spp.): 128 µg/mL (≈ 830 µM); MFC/MIC ratio (Candida spp.; [19]): 1 |

From article PMC12287035, “Anticandidal activity of Clinopodium chilense essential oil” (Frontiers in Pharmacology, 2025)
